Source: the supplement of paper PMC11061612

Assays:
[1] = tested on: ATN-1 (T-Lymphoblastic Leukemia); experiment: Bliss excess, mean over the matrix (fraction); higher = more synergy
Outline: (§1)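 After 24 hours at 37°C and 5% CO2 in 1536-well plates, cells in DMEM/F12 or RPMI plus 10% FBS received two-drug dose matrices for 72 hours. Viability came from CellTiter-Glo 2.0 luminescence and was scaled as inhibition, anchored at 0 by vehicle wells and at 1 by blank wells. Combination Emax is taken as the second-highest inhibition in the matrix, and Bliss excess as the observed combination effect less EA + EB − EA·EB, with EA and EB the single-agent effects.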

[2] = tested on: C2BBe1 (Colorectal Carcinoma); experiment: as above
Outline: as §1

DK-MG (Glioblastoma) = experiment: as above
Outline: as §1

[3] = tested on: HT-1197 (Bladder Carcinoma); experiment: as above
Outline: as §1

[4] = tested on: JURL-MK1 (Chronic Myelogenous Leukemia); experiment: as above
Outline: as §1

[5] = tested on: NCI-H1648 (Lung Adenocarcinoma); experiment: as above
Outline: as §1

[6] = tested on: NCI-H835 (Other Solid Carcinomas); experiment: as above
Outline: as §1

[7] = tested on: SCC90 (Head and Neck Carcinoma); experiment: as above
Outline: as §1

SK-N-DZ (Neuroblastoma) = experiment: as above
Outline: as §1

[8] = tested on: SNU-1 (Gastric Carcinoma); experiment: as above
Outline: as §1

[9] = tested on: TK (B-Cell Non-Hodgkin's Lymphoma); experiment: as above
Outline: as §1

[10] = tested on: TOV-21G (Ovarian Carcinoma); experiment: as above
Outline: as §1

[11] = tested on: HT-1197 (Bladder Carcinoma); experiment: combination Emax (second highest fraction inhibited in the dose matrix, 72 h); higher = more inhibition; extreme values may be limits of the assay
Outline: as §1

HT-144 (Melanoma) = experiment: as above
Outline: as §1

[12] = tested on: NTERA-2-cl-D1 (Other Solid Carcinomas); experiment: as above
Outline: as §1

[13] = tested on: RS4-11 (B-Lymphoblastic Leukemia); experiment: as above
Outline: as §1

[14] = tested on: SUP-HD1 (Hodgkin's Lymphoma); experiment: as above
Outline: as §1

[15] = tested on: TK (B-Cell Non-Hodgkin's Lymphoma); experiment: as above
Outline: as §1

[16] = tested on: TOV-21G (Ovarian Carcinoma); experiment: as above
Outline: as §1

[17] = tested on: Daudi (Burkitt's Lymphoma); experiment: as above
Outline: as §1
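Throughout, for Bliss excess, mean over the matrix: after 72 h of two-drug dosing.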

SMILES | Bliss excess [1] | Bliss excess [2] | Bliss excess (DK-MG (Glioblastoma)) | Bliss excess [3] | Bliss excess [4] | Bliss excess [5] | Bliss excess [6] | Bliss excess [7] | Bliss excess (SK-N-DZ (Neuroblastoma)) | Bliss excess [8] | Bliss excess [9] | Bliss excess [10] | combination Emax [11] | combination Emax (HT-144 (Melanoma)) | combination Emax [12] | combination Emax [13] | combination Emax [14] | combination Emax [15] | combination Emax [16] | combination Emax [17]
C=CCn1c(=O)c2cnc(Nc3ccc(N4CCN(C)CC4)cc3)nc2n1-c1cccc(C(C)(C)O)n1 [AZD1775] + C1CN(CCC1(C(=O)N[C@@H](CCO)C2=CC=C(C=C2)Cl)N)C3=NC=NC4=C3C=CN4 [Capivasertib] (first compound max 3 µM, partner max 3 µM) | 0.0364 | -0.077 | -0.0023 | -0.0488 | 0.0007 | -0.0257 | -0.0572 | -0.0309 | -0.0116 | 0.0488 | 0.0183 | -0.0043 | 0.543 | 0.954 | 0.496 | 0.939 | 0.736 | 0.909 | 0.85 | 
Cc1cc2ncnn2cc1Nc1ncc2c(n1)n(C1CCOCC1)c(=O)n2C [AZD7648] + C=CCn1c(=O)c2cnc(Nc3ccc(N4CCN(C)CC4)cc3)nc2n1-c1cccc(C(C)(C)O)n1 [AZD1775] (first compound max 10 µM, partner max 1 µM) | -0.0176 | -0.0115 | 0.0398 | -0.0553 | -0.0773 | 0.0026 | 0.0229 | 0.0276 | 0.0207 | -0.0572 | -0.0568 | -0.0672 | 0.521 | 0.611 | 0.476 | 0.952 | 0.785 | 0.895 | 0.56 | 0.809
Cc1cc2ncnn2cc1Nc1ncc2c(n1)n(C1CCOCC1)c(=O)n2C [AZD7648] + CCN(CCO)CCCOc1ccc2c(Nc3cc(CC(=O)Nc4cccc(F)c4)[nH]n3)ncnc2c1 [AZD2811] (first compound max 10 µM, 7x7, partner max 1 µM) | -0.0768 | 0.0124 | 0.0189 | -0.0131 | -0.0046 | 0.0369 | 0.0595 | 0.0511 | 0.088 | 0.0214 | 0.0132 | 0.0183 | 0.291 | 0.327 | 0.554 | 0.968 | 0.434 | 0.281 | 0.327 | 0.508
Cc1cc2ncnn2cc1Nc1ncc2c(n1)n(C1CCOCC1)c(=O)n2C [AZD7648] + CN(C)CCCOc1ccc(-c2ccc3ncc4c(c3c2)n(C2CCOCC2)c(=O)n4C)cn1 [AZD0156] (first compound max 10 µM, 7x7, partner max 1 µM) | 0.0185 | -0.0408 | 0.0157 | -0.0117 | -0.0184 | 0.0176 | 0.0086 | 0.0055 | 0.038 | 0.01 | -0.0264 | -0.0047 | 0.194 | 0.218 | 0.484 | 0.246 | 0.199 | 0.204 | 0.169 | 0.444
Cc1cc2ncnn2cc1Nc1ncc2c(n1)n(C1CCOCC1)c(=O)n2C [AZD7648] + C[C@@H]1COCCN1C2=NC(=NC(=C2)C3(CC3)[S@](=N)(=O)C)C4=C5C=CNC5=NC=C4 [AZD6738] (first compound max 10 µM, 7x7, partner max 10 µM) | 0.0406 | 0.0209 | 0.0297 | -0.0226 | -0.0039 | -0.0379 | 0.0417 | 0.0385 | -0.018 | -0.013 | -0.0185 | 0.002 | 0.419 | 0.753 | 0.617 | 0.871 | 0.751 | 0.91 | 0.579 | 0.826
Cc1nc(Nc2ncc(C(=O)Nc3c(C)cccc3Cl)s2)cc(N2CCN(CCO)CC2)n1 [Dasatinib] + CC(=O)Nc1cccc(-n2c(=O)n(C3CC3)c(=O)c3c(Nc4ccc(I)cc4F)n(C)c(=O)c(C)c32)c1 [Trametinib] (first compound max 2 µM, 7x7, partner max 1 µM) | -0.089 | 0.0323 | -0.0685 | -0.0524 | -0.0029 | 0.0135 | -0.0662 | -0.165 | -0.0332 | -0.0263 | -0.0386 | 0.0199 | 0.554 | 0.703 | 0.504 | 0.236 | 0.202 | 0.145 | 0.8 | 0.635
COc1cc2ncnc(Nc3ccc(F)c(Cl)c3)c2cc1OCCCN1CCOCC1 [Gefitinib] + CC(C)n1c(=O)n(C)c2cnc3cc(F)c(-c4ccc(OCCCN5CCCCC5)nc4)cc3c21 [AZD1390] (first compound max 10 µM, 7x7, partner max 0.3 µM) | -0.0377 | -0.029 | -0.0817 | -0.0549 | -0.0586 | -0.0521 | -0.0381 | -0.0582 | -0.0375 | -0.0701 | -0.0495 | -0.084 | 0.0774 | 0.314 | 0.284 | 0.168 | 0.382 | 0.076 | 0.275 | 0.392
COc1cc2c(cc1OCCCCCOc1cc3c(cc1OC)C(=O)N1C=C(C)C[C@H]1C=N3)N=C[C@@H]1CC(C)=CN1C2=O [SG3199] + O=C(c1cc(Cc2n[nH]c(=O)c3ccccc23)ccc1F)N1CCN(C(=O)C2CC2)CC1 [Olaparib] (first compound max 0.001 µM, 7x7, partner max 10 µM) | -0.0249 | -0.0188 | -0.0446 | -0.028 | -0.0007 | -0.0282 | -0.0406 | -0.0461 | -0.0199 | 0.0755 | -0.0114 | -0.0322 | 0.166 | 0.232 | 0.457 | 0.591 | 0.456 | 0.184 | 0.195 | 0.245
C[C@@H](c1ccc2nccn2c1)n1nnc2ncc(-c3cnn(C)c3)nc21 [Savolitinib] + CC1(C)CCC(CN2CCN(c3ccc(C(=O)NS(=O)(=O)c4ccc(NCC5CCOCC5)c([N+](=O)[O-])c4)c(Oc4cnc5[nH]ccc5c4)c3)CC2)=C(c2ccc(Cl)cc2)C1 [Venetoclax] (first compound max 1 µM, 7x7, partner max 1 µM) | -0.0192 | -0.0759 | -0.119 | -0.0534 | -0.0679 | -0.0253 | -0.0355 | -0.0192 | -0.0158 | -0.0821 | -0.0258 | -0.0577 | 0.173 | 0.117 | 0.257 | 1 | 0.792 | 0.907 | 0.116 | 0.109
C[C@@H](c1ccc2nccn2c1)n1nnc2ncc(-c3cnn(C)c3)nc21 [Savolitinib] + Cc1c2c(nn1C)CSCc1cc(n(C)n1)CSc1cc(c3ccccc3c1)OCCCc1c(C(=O)O)n(C)c3c-2c(Cl)ccc13 [AZD5991] (first compound max 1 µM, 7x7, partner max 1 µM) | -0.0293 | -0.0455 | -0.0226 | -0.0356 | -0.0037 | 0.0216 | -0.0267 | -0.0222 | 0.002 | 0.0005 | -0.0262 | -0.0111 | 0.195 | 0.833 | 0.422 | 0.435 | 0.62 | 0.129 | 0.174 | 0.196
